Assay results as given in patent US8809583B2, “Methods for producing isomers of muconic acid and muconate salts” (Amyris, Inc., priority 2010, dated 2014).
Blank lines part the entries; values can stand above or below the compound they belong to.

How the values were obtained:
Assay type in all cases: physicochemical
[1] = Isomerization of cis,cis-muconate to cis,trans-muconate in crude fermentation broth, monitored by 1H NMR and HPLC; conditions: for time until isomerization cis,cis to cis,trans is essentially complete: pH 4, 60° C.
Experimental: cis,cis-muconate produced from a renewable carbon source through biocatalytic conversion (e.g., according to the method of Examples 7 and 7A) was provided, and the fermentation culture including the cis,cis-muconate was warmed to 60° C. The warmed fermentation culture was adjusted to pH 4 by adding 2 N sulfuric acid over 0.5 h. The acidified culture was allowed to react for 3.5 h.
The reaction was monitored by ^1H NMR and HPLC equipped with the Prevail Organic Acid Column (150 mm×4.6 mm), to determine the endpoint of the reaction. […] In general, such isomerization reactions can be monitored to determine appropriate reaction parameters (e.g., time, temperature, pH, and the like).

[2] = Solvent extraction of cis,trans-muconic acid from acidified, filtered fermentation broth (HPLC of both phases); conditions: pH about 3
Experimental: Fermentation broth was obtained that had been isomerized to cis,trans-muconic acid, and was acidified to a pH of about 3. The solid cis,trans-muconic acid was removed by filtration to leave acidified fermentation broth containing approximately 5 to 10 grams per Liter of cis,trans-muconic acid.
(§1) To individual 50 mL conical centrifuge tubes each containing 15 mL of the filtered broth were added 15 mL of each solvent listed in tables below. Each tube was agitated for two minutes and the organic and aqueous phases allowed to separate. The aqueous layer was separated from the solvent layer by pipette and placed into a new 50 mL conical tube. Both the aqueous and solvent phases of each extraction were analyzed for muconic acid using HPLC. A second extraction was performed on each of the separated aqueous layers using fresh solvent. Again the samples were agitated, allowed to settle and the aqueous and organic phases were separated and analyzed.
Different broth samples with different amounts of cis,trans-muconic acid were used to generate the results in each table.

[3] = Precipitation of cis,trans-muconate from clarified broth at different pH values
From the text: Following isomerization (e.g., as in Example 8), broth containing cis,trans-muconic acid was cooled to approximately ambient temperature and the cells, cell debris and precipitated solids were removed from the culture broth by centrifugation. Alternatively, such solids can be removed by filtration (e.g., through a 100 kD SARTOCON® Slice cassette). The cell-free broth was then clarified by filtration (e.g., through a 10 kD SARTOCON® Slice cassette), to remove proteins. […]

[4] = Solubility of muconic acid isomers in organic solvents
[5] = Solvent extraction of slurry of cis,trans-muconic acid in M9 salts (simulated broth) acidified to pH 3.0, precipitate left in; conditions: 63.34 g/L incl. precipitate
Experimental: as §1
To test the ability of solvent extraction to recover cis,trans-muconic acid after acidification to sufficiently low levels that significant amounts of the cis,trans-muconic acid has precipitated, a solution of cis,trans-muconic acid in a solution of M9 salts was used to simulate a fermentation broth. 15 grams of cis,trans-muconic acid were added to 250 mL of M9 salts giving an approximate titer of 60 g/L. This was achieved by raising the pH to 7.0 using sodium hydroxide. The broth was then acidified with sulfuric acid to pH 3.0 causing the cis,trans-muconic acid to precipitate. The solid precipitate was left in the acidified mixture, and the entire slurry was extracted twice with solvent as described above.

[6] = broth 4.86 g/L, cyclohexanone, first line (extraction number not given)
[7] = broth 4.86 g/L, cyclohexanone, second line (extraction number not given)
[8] = broth 4.86 g/L, ethyl hexanol, first line (extraction number not given)
[9] = broth 4.86 g/L, ethyl hexanol, second line (extraction number not given)
[10] = broth 4.86 g/L, isoalcohol, first line (extraction number not given)
[11] = broth 4.86 g/L, isoalcohol, second line (extraction number not given)
[12] = broth 4.86 g/L, xylene, first line (extraction number not given)
[13] = broth 4.86 g/L, xylene, second line (extraction number not given)
[14] = broth 9.82 g/L, 1-butanol, extraction 1
[15] = broth 9.82 g/L, 1-butanol, extraction 2
[16] = broth 9.82 g/L, Octanol, extraction 1
[17] = broth 9.82 g/L, Octanol, extraction 2
[18] = broth 9.82 g/L, tBME, extraction 1
[19] = broth 9.82 g/L, tBME, extraction 2
[20] = broth 10.69 g/L, 1-pentanol, extraction 1
[21] = broth 10.69 g/L, 1-pentanol, extraction 2
[22] = broth 10.69 g/L, MEK, extraction 1
[23] = broth 10.69 g/L, MEK, extraction 2
[24] = broth 10.69 g/L, MeTHF, extraction 1
[25] = broth 10.69 g/L, MeTHF, extraction 2
[26] = broth 10.69 g/L, cyclohexane, extraction 1
[27] = broth 10.69 g/L, cyclohexane, extraction 2
[28] = broth 10.69 g/L, cylcohexanol, extraction 1
[29] = broth 10.69 g/L, cylcohexanol, extraction 2
[30] = broth 10.69 g/L, decalin, extraction 1
[31] = broth 10.69 g/L, decalin, extraction 2
[32] = broth 10.69 g/L, n-butyl acetate, extraction 1
[33] = broth 10.69 g/L, n-butyl acetate, extraction 2

time until isomerization cis,cis to cis,trans is essentially complete ([1]; HPLC traces and time course): about 1.25 hours
time until isomerization cis,cis to cis,trans is essentially complete ([1]; crude fermentation broth, 1H NMR): about 1.25 hours
isomerization from cis,cis to cis,trans-muconic acid ([1]; pH 7, HPLC traces and time course): essentially no isomerization
isomerization from cis,cis to cis,trans muconic acid ([1]; pH 7, crude fermentation broth, 0 to 3.25 hours, 1H NMR): essentially no isomerization
Structure (SMILES): O=C(O)/C=C\C=C/C(=O)O [cis,cis-muconate, cis,cis-muconic acid]

Muconic acid in aqueous phase [2, 6]: 0.21 g/L
Muconic acid in organic phase [2, 6]: 6.11 g/L
Partition coefficient [2, 6]: 29.10
Muconic acid in aqueous phase [2, 7]: 0.23 g/L
Muconic acid in organic phase [2, 7]: 0.00 g/L
Partition coefficient [2, 7]: large
Muconic acid in aqueous phase [2, 8]: 0.89 g/L
Muconic acid in organic phase [2, 8]: 3.83 g/L
Partition coefficient [2, 8]: 4.30
Muconic acid in aqueous phase [2, 9]: 0.20 g/L
Muconic acid in organic phase [2, 9]: 0.79 g/L
Partition coefficient [2, 9]: 3.95
Muconic acid in aqueous phase [2, 10]: 0.63 g/L
Muconic acid in organic phase [2, 10]: 4.87 g/L
Partition coefficient [2, 10]: 7.73
Muconic acid in aqueous phase [2, 11]: 0.04 g/L
Muconic acid in organic phase [2, 11]: 0.49 g/L
Partition coefficient [2, 11]: 12.25
Muconic acid in aqueous phase [2, 12]: 5.15 g/L
Muconic acid in organic phase [2, 12]: 0.00 g/L
Partition coefficient [2, 12]: 0.00
Muconic acid in aqueous phase [2, 13]: 4.82 g/L
Muconic acid in organic phase [2, 13]: 0.00 g/L
Partition coefficient [2, 13]: 0.00
Muconic acid in aqueous phase [2, 14]: 1.10 g/L
Muconic acid in organic phase [2, 14]: 6.26 g/L
Partition coefficient [2, 14]: 5.69
Muconic acid in aqueous phase [2, 15]: 0.27 g/L
Muconic acid in organic phase [2, 15]: 0.51 g/L
Partition coefficient [2, 15]: 1.89
Muconic acid in aqueous phase [2, 16]: 2.19 g/L
Muconic acid in organic phase [2, 16]: 5.40 g/L
Partition coefficient [2, 16]: 2.47
Muconic acid in aqueous phase [2, 17]: 1.52 g/L
Muconic acid in organic phase [2, 17]: 0.53 g/L
Partition coefficient [2, 17]: 0.35
Muconic acid in aqueous phase [2, 18]: 2.05 g/L
Muconic acid in organic phase [2, 18]: 6.53 g/L
Partition coefficient [2, 18]: 3.19
Muconic acid in aqueous phase [2, 19]: 0.72 g/L
Muconic acid in organic phase [2, 19]: 1.23 g/L
Partition coefficient [2, 19]: 1.71
Muconic acid in aqueous phase [2, 20]: 1.29 g/L
Muconic acid in organic phase [2, 20]: 8.29 g/L
Partition coefficient [2, 20]: 6.43
Muconic acid in aqueous phase [2, 21]: 0.30 g/L
Muconic acid in organic phase [2, 21]: 1.06 g/L
Partition coefficient [2, 21]: 3.53
Muconic acid in aqueous phase [2, 22]: 2.63 g/L
Muconic acid in organic phase [2, 22]: 9.65 g/L
Partition coefficient [2, 22]: 3.67
Muconic acid in aqueous phase [2, 23]: 0.84 g/L
Muconic acid in organic phase [2, 23]: 1.99 g/L
Partition coefficient [2, 23]: 2.37
Muconic acid in aqueous phase [2, 24]: 0.65 g/L
Muconic acid in organic phase [2, 24]: 7.40 g/L
Partition coefficient [2, 24]: 11.38
Muconic acid in aqueous phase [2, 25]: 0.00 g/L
Muconic acid in organic phase [2, 25]: 0.51 g/L
Partition coefficient [2, 25]: large
Muconic acid in aqueous phase [2, 26]: 10.47 g/L
Muconic acid in organic phase [2, 26]: 0.00 g/L
Partition coefficient [2, 26]: 0.00
Muconic acid in aqueous phase [2, 27]: 10.20 g/L
Muconic acid in organic phase [2, 27]: 0.00 g/L
Partition coefficient [2, 27]: 0.00
Muconic acid in aqueous phase [2, 28]: 0.98 g/L
Muconic acid in organic phase [2, 28]: 8.62 g/L
Partition coefficient [2, 28]: 8.80
Muconic acid in aqueous phase [2, 29]: 0.28 g/L
Muconic acid in organic phase [2, 29]: 1.05 g/L
Partition coefficient [2, 29]: 3.75
Muconic acid in aqueous phase [2, 30]: 10.25 g/L
Muconic acid in organic phase [2, 30]: 0.00 g/L
Partition coefficient [2, 30]: 0.00
Muconic acid in aqueous phase [2, 31]: 12.99 g/L
Muconic acid in organic phase [2, 31]: 0.00 g/L
Partition coefficient [2, 31]: 0.00
Muconic acid in aqueous phase [2, 32]: 3.96 g/L
Muconic acid in organic phase [2, 32]: 6.78 g/L
Partition coefficient [2, 32]: 1.71
Muconic acid in aqueous phase [2, 33]: 2.02 g/L
Muconic acid in organic phase [2, 33]: 3.55 g/L
Partition coefficient [2, 33]: 1.76
% ctMA in filtrate ([3]; pH 2.0): 18 weight %
% ctMA in filtrate ([3]; pH 2.5): 18 weight %
ctMA in precipitate ([3]; pH 2.5): 64 weight %
% ctMA in filtrate ([3]; pH 3.0): 22 weight %
ctMA in precipitate ([3]; pH 3.0): 61 weight %
cis,trans-muconic acid originally in the solution that precipitates ([3]; pH 3, Table 2): about 60%
cis,trans-muconic acid remaining in solution ([3]; pH 3, Table 2): approximately 40%
% ctMA in filtrate ([3]; pH 3.5): 26 weight %
ctMA in precipitate ([3]; pH 3.5): 58 weight %
% ctMA in filtrate ([3]; pH 4.0): 75 weight %
ctMA in precipitate ([3]; pH 4.0): 22 weight %
% ctMA in filtrate ([3]; pH 4.7): 100 weight %
ctMA in precipitate ([3]; pH 4.7): 0 weight %
Muconic acid in aqueous phase ([5]; MeTHF, extraction 1): 2.03 g/L
Muconic acid in organic phase ([5]; MeTHF, extraction 1): 47.10 g/L
Partition coefficient ([5]; MeTHF, extraction 1): 23.20
Muconic acid in aqueous phase ([5]; MeTHF, extraction 2): 0.11 g/L
Muconic acid in organic phase ([5]; MeTHF, extraction 2): 1.64 g/L
Partition coefficient ([5]; MeTHF, extraction 2): 14.91
Muconic acid in aqueous phase ([5]; cyclohexanol, extraction 1): 10.53 g/L
Muconic acid in organic phase ([5]; cyclohexanol, extraction 1): 51.37 g/L
Partition coefficient ([5]; cyclohexanol, extraction 1): 4.88
Muconic acid in aqueous phase ([5]; cyclohexanol, extraction 2): 2.71 g/L
Muconic acid in organic phase ([5]; cyclohexanol, extraction 2): 3.75 g/L
Partition coefficient ([5]; cyclohexanol, extraction 2): 1.38
Muconic acid in aqueous phase ([5]; cyclohexanone, extraction 1): 2.92 g/L
Muconic acid in organic phase ([5]; cyclohexanone, extraction 1): 51.05 g/L
Partition coefficient ([5]; cyclohexanone, extraction 1): 17.48
Muconic acid in aqueous phase ([5]; cylcohexanone, extraction 2): 0.20 g/L
Muconic acid in organic phase ([5]; cylcohexanone, extraction 2): 2.10 g/L
Partition coefficient ([5]; cylcohexanone, extraction 2): 10.50
Muconic acid in aqueous phase ([5]; tBME, extraction 1): 54.00 g/L
Muconic acid in organic phase ([5]; tBME, extraction 1): 0.00 g/L
Partition coefficient ([5]; tBME, extraction 1): 0.00
Muconic acid in aqueous phase ([5]; tBME, extraction 2): 59.88 g/L
Muconic acid in organic phase ([5]; tBME, extraction 2): 0.00 g/L
Partition coefficient ([5]; tBME, extraction 2): 0.00
Structure (SMILES): O=C(O)/C=C\C=C\C(=O)O [cis,trans-muconic acid]
solubility in organic solvents compared with the other isomers [4]: more soluble in organic solvents than either of the cis,cis or trans,trans isomers
